Source: patent US20050153406A1, “Process for producing solution containing ubiquinone-10” (priority 2002, published 2005)

Test: Solubility of ubiquinone-10 in aqueous methanol solution
Assay type: physicochemical
Conditions: aqueous methanol solutions of varying concentration at 20, 30, 50 and 70° C. (FIG. 1)
Description: Using a standard ubiquinone-10 (manufactured by Wako Pure Chemical Industries Co., Ltd.), the solubility of ubiquinone-10 is an aqueous methanol solution was examined in terms of the relation between the concentration of the solution and temperature.

Q: For `COC1=C(OC)C(=O)C(C/C=C(\C)CC/C=C(\C)CC/C=C(\C)CC/C=C(\C)CC/C=C(\C)CC/C=C(\C)CC/C=C(\C)CC/C=C(\C)CC/C=C(\C)CCC=C(C)C)=C(C)C1=O` [ubiquinone-10], which “solubility of ubiquinone-10 in aqueous methanol solution” value is on record?
A: increased in proportion to the methanol concentration and the temperature of the aqueous methanol solution
